Assay results from the supplement of paper PMC4862054.

What was measured:
Assay in all cases: normalised viability (% of control), CellTiter-Blue; higher = more viable cells (about 100 = DMSO control)
Conditions in all cases: incubation time: 72 h
[1] = tested on: CAL-148
Description: (§1)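 DSRT, CellTiter-Blue viability, 72 h incubation. Signal is normalised to DMSO and benzethonium chloride controls. Value is the normalised response at dose 6.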

[2] = tested on: CAL-51
Description: as §1

[3] = tested on: CAL-85-1
Description: as §1

[4] = tested on: DU-4475
Description: as §1

[5] = tested on: HDQ-P1
Description: as §1

[6] = tested on: MDA-MB-453
Description: as §1

Compound | normalised viability [1] [%] | normalised viability [2] [%] | normalised viability [3] [%] | normalised viability [4] [%] | normalised viability [5] [%] | normalised viability [6] [%]
Clc1ccc(Nc2nnc(Cc3ccncc3)c3ccccc23)cc1 [Vatalanib] (300 nM) | 88.5 | 98.3 | 94.6 | 95 | 78.7 | 105
CCN(CCCOc1ccc2c(Nc3cc(CC(=O)Nc4cccc(F)c4)[nH]n3)ncnc2c1)CCOP(=O)(O)O [Barasertib] (30 nM) | 23.7 | 72 | 77.7 | 85.7 | 46 | 67.6
Cc1ccc(C(=O)N(CCCN)[C@@H](c2oc3cc(Cl)ccc3c(=O)c2Cc2ccccc2)C(C)C)cc1 (30 nM) | 18.3 | 26.8 | 33.3 | 24.3 | 74 | 24.8
N[C@@H](CSC(c1ccccc1)(c1ccccc1)c1ccccc1)C(=O)O [S-trityl-L-cysteine] (1200 nM) | 114 | 78.5 | 95.1 | 97.8 | 68.4 | 90.5
N.N.[Cl][Pt][Cl] [Cisplatin] (300 nM) | 104 | 108 | 99.5 | 93.6 | 78.9 | 107
CC(=O)Nc1ccc(C(=O)Nc2ccccc2N)cc1 [CI-994] (30 nM) | 92.8 | 98.3 | 104 | 85.6 | 100 | 102
NCC(=O)CCC(=O)O [Aminolevulinic acid] (300 nM) | 113 | 102 | 91.4 | 91.8 | 90 | 117
CO[C@H]1/C=C\C=C(/C)C(=O)NC2=CC(=O)C(NCCN(C)C)=C(C[C@@H](C)C[C@H](OC)[C@H](O)[C@@H](C)/C=C(\C)[C@@H]1OC(N)=O)C2=O [Alvespimycin] (30 nM) | 48 | 63.5 | 62.8 | 1.87 | 44.2 | 7.17
Oc1nc(-c2ccc(C(F)(F)F)cc2)nc2c1CSCC2 [XAV-939] (300 nM) | 93.3 | 99.3 | 89.2 | 116 | 112 | 93.8
CC(C)Cn1cnc2c(N)nc3ccccc3c21 [Imiquimod] (300 nM) | 96.5 | 97.5 | 102 | 80.5 | 75.3 | 103
CC1(C)NC(=O)N(c2ccc([N+](=O)[O-])c(C(F)(F)F)c2)C1=O [Nilutamide] (300 nM) | 98 | 102 | 104 | 106 | 125 | 113
O=C1CCC(N2C(=O)c3ccccc3C2=O)C(=O)N1 (stereo not drawn) [Thalidomide] (300 nM) | 117 | 88.4 | 105 | 99.6 | 80.2 | 103
CN(N=O)C(=O)N[C@@H](C=O)[C@@H](O)[C@H](O)[C@H](O)CO [Streptozocin] (300 nM) | 107 | 108 | 106 | 97.2 | 85.4 | 102
